The text below walks through data of patent US12246022B2, “Compositions and methods for treating, preventing or reversing age associated inflammation and disorders” (BROWN UNIVERSITY, priority 2019, dated 2025).

In data set [1] the test system is human LINE-1. The data set is described as follows: Human LINE-1 retrotransposition assay, related experiments with islatravir (pYX017, HeLa cells, Tables 12 and 13). The class given is cell-based. The settings on record: Homo sapiens. On the procedure: In related experiments, islatravir and other compounds were tested for inhibition of retrotransposition activity of human LINE-1 in HeLa cells according to the following procedure.
HeLa cervical cancer cells were cultivated at 37° C. in a humidified 5% CO2 incubator in Dulbecco's Modified Eagle's Medium (DMEM)—high glucose, with 4500 mg/L glucose, L-glutamine, sodium pyruvate and sodium bicarbonate (Sigma), supplemented with 10% of heat inactivated fetal bovine serum (Thermo Fisher).
Assays were performed using reporter plasmid pYX017 as described (Xie, et al., 2011) with several modifications. The reporter assay was performed in 96-well white optical bottom plates. HeLa cells were seeded in wells 24 h prior to transfection and compound treatment so that cells were approximately 30% confluent on the day of transfection. Different cell plating densities were tested and a density of 2×10^3 cells was determined to be optimal.
Compounds were resuspended in DMSO. Serial dilutions (1:3) were prepared in DMSO. Medium containing different concentrations of the compounds were prepared by adding 2 μl of the compound dilution to 1 ml of the culture medium. The final concentration of DMSO in the medium was 0.2%.
FuGENE® HD transfection reagent (Promega, E2311, Lot 382574 and Lot 397842) was used to transfect the plasmids into the cells. The transfection reagent: DNA mixture was prepared in OpiMEM (Thermo Fisher) according to manufacturer's instructions. Different ratios of transfection reagent to DNA were tested and a ratio of 3:1 was determined to be optimal. Culture medium was removed from the cells and discarded. The transfection reagent: DNA mixture (5 μl) was mixed with the compound containing medium (100 μl/well) and this was added onto the cells of each well. Cells were incubated at 37° C./5% CO2 for different incubation time. A 72 h incubation time was determined to be optimal.
Luciferase reporter activity was quantified with the Dual-Luciferase® Reporter Assay System (Promega) according to manufacturer's instructions for multiwell plates except that cells were lysed directly on the multiwell plate with 30 μl of the passive lysis buffer (PLB) for 20 min at room temperature, with gentle shaking to ensure complete cell lysis.
Firefly and Renilla luciferase signals were measured using a SpectraMax i3x Multi-Mode Microplate Reader. Integration times of 100 ms and 10 ms were used to measure the Firefly and Renilla signals respectively. Relative L1 activity is calculated as Firefly/Renilla *1000 or Firefly/Renilla *10,000. Dose response inhibition data were fit to a four parameter logistic equation using non-linear regression (using Graphpad Prism 8), to determine IC50 values for each inhibitor.

A short description of data set [2]: Comparative studies: intracellular drug concentration relative to LINE-1 IC50 and huCSF/Plasma ratio. The settings on record: Table 13 Comparative Studies.
Data set [3] relates to human LINE-1. The data set is described as follows: Human LINE-1 retrotransposition assay (dual luciferase pYX017 reporter, HeLa cells, Table 11). In kind it is cell-based. The method, then: Assays were performed as described in Xie et al., 2011^151 with several modifications. The reporter assay was performed in 96 well white Optical bottom plates. 6000 HeLa cells were seeded in each well 24 hours prior transfection and compound treatment. All compounds were resuspended in DMSO. Stock solution concentrations varied from 50 mM to 1.25 mM depending of the solubility of the compound. Serial dilutions (1:3) were prepared in DMSO. Ten different concentrations of each compound were tested in triplicate. Medium containing different concentrations of the compounds were prepared by adding 2 μL of the compound dilution to 1 mL of the culture medium. The final concentration of DMSO in the medium was 0.2%. FuGENE® HD transfection reagent (Promega) was used to transfect the plasmid pYX016 into the cells. The transfection mix was prepared in OpiMEM (Thermo Fisher) using a reagent to DNA ratio of 3.5:1 according to manufacturer's instructions. Culture medium was removed from the cells and discarded. The transfection mix (5 μL) was mixed with the compound containing medium (100 μL/well) and this was added onto the cells of each well. Cells were incubated for 48H at 37° C./5% CO2. Luciferase reporter activity was quantified with the Dual-Luciferase® Reporter Assay System (Promega) according to manufacturer's instructions for multiwell plates with the following modification: Cells were lysed directly on the multiwell plate with 30 μL of the passive lysis buffer (PLB) for 20 min at room temperature, with gentle shaking to ensure complete cell lysis (instead of 20 μL of PLB for 15 min). Firefly and Renilla luciferase signals were measured using a SpectraMax i3x Multi-Mode Microplate Reader. […] Relative L1 activity was calculated as Firefly/Renilla *10,000. […] The experiment was performed twice, independently. […] Because the human construct yields a lower signal, compounds were incubated with cells for 72 hours instead of 48 hours, and cells were seeded at a density of 2000/well instead of 6000/well. In addition, the transfection reagent to DNA ratio was 2:1 instead of 3.5:1.

The mark [4] stands for this setting: HeLa, Table 13 Comparative Studies, read-out: Human Line-1 IC50.

Consider `Nc1nc(=O)n([C@@H]2CS[C@H](CO)O2)cc1F` [Emtricitabine], for which the IC50 in the data set with human LINE-1 [1] (setting [4]) was 1.34 µM. In addition, in data set [2], the “Human Line-1 Intracellular drug conc. (% of IC-50 conc.)” value came to 67%.
As to `Nc1ccn([C@@H]2CS[C@H](CO)O2)c(=O)n1` [Lamivudine], the IC50 is 0.793 µM in the data set on human LINE-1 [3] (pYX017, 72 H post-transfection, read-out: Human L1 activity inhibition IC50, Exp. 1); 0.867 µM in the data set with human LINE-1 [3] (pYX017, 72 H post-transfection, read-out: Human L1 activity inhibition IC50, Exp. 2); 0.83 µM in the data set on human LINE-1 [3] (pYX017, 72 H, n = 2, read-out: Human L1 activity inhibition IC50, Average); more than 0.8 µM in the data set on human LINE-1 [3] (read-out: human L1 inhibition IC50); 0.64 µM in the data set on human LINE-1 [1] (setting [4]); 0.8 µM with human LINE-1 [1] (HeLa cells, pYX017, 72 h, n = 3, read-out: Human LINE-1 IC50, Average). The IC50 with human LINE-1 [1] (HeLa cells, pYX017, 72 h, read-out: Human LINE-1 IC50, Exp.1) was found to be 0.9 µM; in the data set with human LINE-1 [1] (HeLa cells, pYX017, 72 h, read-out: Human LINE-1 IC50, Exp.2) it was 0.7 µM. Besides, in data set [2], the “Human Line-1 Intracellular drug conc. (% of IC-50 conc.)” value was found to be 9%.

For orientation: IC50 means the point on the concentration scale where inhibition reaches its midpoint.
